A word on the Ki: it is the equilibrium dissociation constant of an inhibitor or competing ligand from its target. Higher therefore signals lower affinity.

This assay deals with T1, Adenosine deaminase (Bos taurus, UniProt P56658).
T1 sequence (P56658 whole entry): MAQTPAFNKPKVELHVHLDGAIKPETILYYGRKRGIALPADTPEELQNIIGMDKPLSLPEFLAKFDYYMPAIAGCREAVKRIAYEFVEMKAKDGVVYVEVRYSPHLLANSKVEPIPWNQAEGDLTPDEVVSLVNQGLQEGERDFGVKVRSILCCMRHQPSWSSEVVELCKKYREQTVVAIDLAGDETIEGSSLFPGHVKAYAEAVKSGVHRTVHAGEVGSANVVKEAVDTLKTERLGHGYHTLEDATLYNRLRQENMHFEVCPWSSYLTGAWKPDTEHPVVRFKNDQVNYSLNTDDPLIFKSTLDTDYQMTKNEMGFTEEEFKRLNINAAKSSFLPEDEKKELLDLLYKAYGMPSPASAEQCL
As to the kind of experiment: Binding affinity towards calf spleen adenosine deaminase was determined.
As to `COCCOC1c2c(ncn2Cc2ccc(OC)cc2)N=CN(C)N1C` (stereo not drawn), affinity was put at a Ki of 23 µM.

With `COc1ccc(Cn2cnc3c2C(OC)N(C)N(C)C=N3)cc1` (stereo not drawn), the affinity, expressed as Ki, was 24 µM.

Turning to `COc1ccc(Cn2cnc3c2C(OC(C)C)N(C)N(C)C=N3)cc1` (stereo not drawn), the affinity corresponds to a Ki of 30 µM.

As to `COc1ccc(COC2c3c(ncn3Cc3ccc(OC)cc3)N=CN(C)N2C)cc1` (stereo not drawn), the Ki is 77 µM.

Consider `CCCCOC1c2c(ncn2Cc2ccc(OC)cc2)N=CN(C)N1C` (stereo not drawn), for which the Ki amounted to 15 µM.

On to `CCCOC1c2c(ncn2Cc2ccc(OC)cc2)N=CN(C)N1C` (stereo not drawn), for which the Ki amounted to 12 µM.

`CCOC1c2c(ncn2Cc2ccc(OC)cc2)N=CN(C)N1C` (stereo not drawn) displayed a Ki of 20 µM.

`COc1ccc(Cn2cnc3c2C(OCc2cccc(C)c2)N(C)N(C)C=N3)cc1` (stereo not drawn): the Ki was 93 µM.

(Values after ChEMBL document CHEMBL1148406, “Inhibition of adenosine deaminase by novel 5:7 fused heterocycles containing the imidazo[4,5-e][1,2,4]triazepine ring system: a structure-activity relationship study” (J Med Chem, 2004).)
